Source: patent US11419955B2, “Multimodal silica-based nanoparticles” (Sloan-Kettering Institute for Cancer Research, priority 2009, dated 2022)

Experiments:
[1] = Montet et al. 2006; cited from earlier work
[2] = tested on: FAK pathway; test: Western blot of FAK pathway signaling in M21 cells; assay type: cell-based, human; settings: M21 cells exposed to 100 nM cRGDY-PEG-C dots
Experimental: To determine whether […] integrin-binding cRGDY-PEG-C-dots modulates the activity of these pathways, we treated serum-deprived (0.2% FCS) M21 cells with 100 nM of cRGDY-PEG-C-dots for 2 hrs at 37° C.; serum-deprived cells treated with 0.2% FCS alone served as controls. […] These findings, depicted graphically as normalized intensity ratios, have been expressed relative to their respective total protein levels, and normalized to corresponding values measured under control conditions (FIG. 40C).
M21 cells (1×10^6 cells/six wells plate) were grown in six wells coated with collagen (10 mg/ml), and made quiescent by growing under serum-deprived conditions. The medium was then changed to 0.2% FCS, and different concentrations (25-400 nM) of cRGDY-PEG-C-dots were added (37° C., 0.5-8 hours). […] Protein concentrations were determined by the bicinchoninic acid assay (BCA, Thermo Scientific, Rockford, Ill.). […]
In order to quantify the differences in the size and intensity between Western blot bands, we performed densitometry of phosphorylated and total protein intermediates using Photoshop CS2 (Adobe, San Jose, Calif.). […]

[3] = tested on: HUVEC cells; test: Migration assay, HUVEC cells; assay type: cell-based, human; settings: 400 nM particles, 24 hour, before and after addition of inhibitor
Experimental: M21 cells: M21 cells were seeded (6×10^4 cells/well) using a migration kit (Oris™ Collagen I coated plate, […] TEC). Twenty-four hours after seeding the cells, stoppers in the plate were removed. Fresh culture media (100 μl) supplemented with 0.2% FBS was introduced and cRGDY-PEG-C-dots were added at several concentrations: 25, 100 and 400 nM. Every 24 hours thereafter, media was replaced, along with new particles, over a 72 hr time interval. Prior to incubating the plate at 37° C. overnight, time zero images were captured by the Axiovert 200M microscope (Carl Zeiss) using a 5× (0.15 NA) objective and using a scan slide module in the Metamorph software (molecular devices, PA). Serial microscopy was then performed and images captured every 24 hrs for a total of 96 hours post-incubation. The data were analyzed by using ImageJ software. […]
Phase contrast images captured for migration studies were analyzed using ImageJ 1.45s (National Institutes of Health, rsbweb.nih.gov/ij/) in order to quantify the extent of cell migration (i.e., area closure) for M21 cells and HUVECs. […] The enclosed area for each image was measured (pixels) and used to calculate percent closure relative to time zero (following particle addition and media replacement) as follows: difference in area at a given time point (24, 48, 72 or 96 hr) and at time zero divided by the same area at time zero multiplied by 100. […]

[4] = tested on: melanoma nodal metastases; set-up: species or system Sinclair miniature swine; settings: in vivo
Experimental: Spontaneous melanoma Sinclair miniature swine (10-12 kg, Sinclair Research Center, MO) were injected intravenously with 5 mCi ^18F-fluoro-deoxyglucose (^18F-FDG) for whole-body screening of nodal and/or organ metastases. Miniswine underwent 1-hr dynamic ^18F-FDG PET whole body PET scan using a clinical PET scanner 40 minutes after injection to screen for metastatic disease, followed by CT scan acquisition for anatomic localization. […]
Miniswine were taken to the operating room for identification of nodes. Optical fluorescence imaging was performed using large field-of-view near infrared fluorescence camera system, smaller field-of-view modified endoscope, and a modified stereomacroscope for obtaining higher resolution fluorescence images within the exposed surgical bed. […]
The primary melanoma skin lesion was excised, and an incision made to allow access to the sentinel node(s). […] Specimens were sent for histological assessment for metastases and optical confocal microscopy to confirm the presence of both malignancy and nanoparticle fluorescence.
Following harvest of the sentinel nodes, the entire lymph node basin was excised and further evaluated using histological methods (with immunohistochemical markers for melanoma as needed), fluorescence microscopy, and the hand-held PET probe for correlative purposes. […]

For cRGD, the “published blood T1/2 / blood residence half-time” value [1] is given as “about 13 minutes”.

With `CS(=O)(=O)c1cccc(CNc2nc(Nc3ccc4c(c3)CCC(=O)N4)ncc2C(F)(F)F)c1` [PF-573228] the “Inhibition of MEK or Erk phosphorylation” value ([2]; 250, 500 nM inhibitor) was “observed only at the higher inhibitor concentration”, the “phosphorylation of FAK on Tyr397 and Src” value ([2]; two inhibitor concentrations (250, 500 nM)) was “inhibition of the phosphorylation of FAK on Tyr^397 and Src” and the “Percentage change in mean areas of closure relative to controls” value [3] was “+3%”.

In the case of ^18F-fluorodeoxyglucose [^18F-FDG], the “discrimination of metastatic disease from inflammation” value [4] is reported as “failed to detect metastatic disease, while identifying inflammatory and other metabolically active sites”.
